Test results as given in ChEMBL document CHEMBL6078724, “Discovery of the first examples of right open reading frame kinase 2 (RIOK2) molecular glue degraders” (Eur J Med Chem, 2025).
The source made the active and inactive calls. No cut-off for these calls is given here.

Tests used:
[1] = molecular target: T1, E3 ubiquitin-protein ligase RNF126/Serine/threonine-protein kinase RIO2 (Homo sapiens, UniProt Q9BVS4+Q9BV68); assay: Molecular glue degradation activity at RNF126/RIOK2 in human MOLT-4 cells assessed as induction protein degradation incubated for 12 hrs by immunoblot analysis relative to control; format: cell-based
Target sequence in this assay (Q9BV68 2-311 partner limits assumed): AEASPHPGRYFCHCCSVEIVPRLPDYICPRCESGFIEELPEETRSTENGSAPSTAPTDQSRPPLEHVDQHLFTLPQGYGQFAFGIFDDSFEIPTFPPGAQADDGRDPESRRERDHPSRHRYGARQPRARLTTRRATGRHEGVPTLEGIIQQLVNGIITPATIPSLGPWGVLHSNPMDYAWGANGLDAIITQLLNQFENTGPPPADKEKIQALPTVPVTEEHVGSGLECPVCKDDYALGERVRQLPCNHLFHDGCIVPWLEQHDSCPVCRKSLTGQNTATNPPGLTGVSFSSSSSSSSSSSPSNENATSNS
Target sequence in this assay (Q9BVS4 whole entry): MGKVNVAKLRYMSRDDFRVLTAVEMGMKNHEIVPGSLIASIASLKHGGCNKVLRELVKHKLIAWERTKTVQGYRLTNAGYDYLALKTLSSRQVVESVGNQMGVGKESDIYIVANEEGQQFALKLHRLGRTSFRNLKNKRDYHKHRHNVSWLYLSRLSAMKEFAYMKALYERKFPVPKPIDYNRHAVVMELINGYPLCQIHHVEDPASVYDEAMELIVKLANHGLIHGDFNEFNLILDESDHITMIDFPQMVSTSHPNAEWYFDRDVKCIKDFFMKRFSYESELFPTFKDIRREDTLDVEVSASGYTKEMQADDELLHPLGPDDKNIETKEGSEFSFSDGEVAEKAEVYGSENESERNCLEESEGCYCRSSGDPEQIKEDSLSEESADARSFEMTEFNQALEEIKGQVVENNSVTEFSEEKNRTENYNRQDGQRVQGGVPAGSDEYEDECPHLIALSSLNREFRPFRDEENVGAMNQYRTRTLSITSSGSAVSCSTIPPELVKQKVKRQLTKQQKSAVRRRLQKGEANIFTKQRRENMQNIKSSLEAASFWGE

[2] = molecular target: T1, E3 ubiquitin-protein ligase RNF126/Serine/threonine-protein kinase RIO2; assay: Molecular glue degradation activity at RNF126/RIOK2 in human MOLT-4 cells assessed as induction protein degradation incubated for 12 hrs by immunoblot analysis; format: cell-based
Target sequence in this assay (Q9BVS4 whole entry): as above
Target sequence in this assay (Q9BV68 whole entry): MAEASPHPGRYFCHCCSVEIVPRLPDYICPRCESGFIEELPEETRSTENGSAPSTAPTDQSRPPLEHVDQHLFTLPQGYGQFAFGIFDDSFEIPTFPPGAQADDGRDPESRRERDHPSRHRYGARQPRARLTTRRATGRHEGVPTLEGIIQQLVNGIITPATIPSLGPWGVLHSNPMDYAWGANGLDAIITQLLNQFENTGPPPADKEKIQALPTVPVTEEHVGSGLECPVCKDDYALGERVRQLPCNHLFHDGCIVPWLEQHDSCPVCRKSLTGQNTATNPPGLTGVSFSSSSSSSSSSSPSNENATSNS

[3] = molecular target: Serine/threonine-protein kinase RIO2 (Homo sapiens, UniProt Q9BVS4); assay: Binding affinity to RIOK2 (unknown origin) assessed as dissociation constant
Sequence of Serine/threonine-protein kinase RIO2 (Q9BVS4 whole entry): as the sequence (Q9BVS4 whole entry) above

HL-60 = assay: Antiproliferative activity against human HL-60 cells incubated for 72 hrs by CCK8 assay; format: functional, cell-based; conditions: HL-60, 72 h
U-937 = assay: Antiproliferative activity against human U-937 cells incubated for 72 hrs by CCK8 assay; format: functional, cell-based; conditions: U-937, 72 h
A549 = assay: Antiproliferative activity against human A549 cells incubated for 72 hrs by CCK8 assay; format: functional, cell-based; conditions: A549, 72 h
K562 = assay: Antiproliferative activity against human K562 cells incubated for 72 hrs by CCK8 assay; format: functional, cell-based; conditions: K562, 72 h
MOLT-4 [4] = assay: Induction of apoptosis in human MOLT-4 cells at 900 nM incubated for 48 hrs by Annexin V-FITC/PI staining based flow cytometry relative to control; format: functional
MOLT-4 [5] = assay: Induction of cell cycle arrest in human MOLT-4 cells assessed as accumulation at G2/M phase at 900 nM incubated for 24 hrs by PI staining based flow cytometry relative to control; format: functional
[6] = Antiproliferative activity against mouse NIH3T3 cells incubated for 72 hrs by CCK8 assay; format: toxicity, cell-based
[7] = molecular target: T1, E3 ubiquitin-protein ligase RNF126/Serine/threonine-protein kinase RIO2; assay: Molecular glue degradation activity at RNF126/RIOK2 in human MOLT-4 cells assessed as decrease in mTOR level at 500 nM incubated for 12 hrs by immunoblot analysis; format: cell-based
Target sequence in this assay (Q9BV68 2-311 partner limits assumed): as the sequence (Q9BV68 2-311 partner limits assumed) above
Target sequence in this assay (Q9BVS4 whole entry): as the sequence (Q9BVS4 whole entry) above

[8] = Antiproliferative activity against human MRC5 cells incubated for 72 hrs by CCK8 assay; format: toxicity, cell-based
[9] = molecular target: T1, E3 ubiquitin-protein ligase RNF126/Serine/threonine-protein kinase RIO2; assay: Molecular glue degradation activity at RNF126/RIOK2 in human MOLT-4 cells assessed as decrease in AKT level at 500 nM incubated for 12 hrs by immunoblot analysis; format: cell-based
Target sequence in this assay (Q9BV68 2-311 partner limits assumed): as the sequence (Q9BV68 2-311 partner limits assumed) above
Target sequence in this assay (Q9BVS4 whole entry): as the sequence (Q9BVS4 whole entry) above

[10] = Antiproliferative activity against HEK293 cells incubated for 72 hrs by CCK8 assay; format: toxicity, cell-based; conditions: human
ASPC1 = assay: Antiproliferative activity against human ASPC1 cells incubated for 72 hrs by CCK8 assay; format: functional, cell-based; conditions: ASPC1, 72 h
OCI-Ly3 = assay: Antiproliferative activity against human OCILY3 cells incubated for 72 hrs by CCK8 assay; format: functional, cell-based; conditions: OCI-Ly3, 72 h
MOLT-4 [11] = assay: Antiproliferative activity against human MOLT-4 cells incubated for 72 hrs by CCK8 assay; format: functional, cell-based; conditions: MOLT-4, 72 h
HeLa = assay: Antiproliferative activity against human HeLa cells incubated for 72 hrs by CCK8 assay; format: functional, cell-based

| SMILES | Emax [1] | DC50 [2] | also measured |
| --- | --- | --- | --- |
| COc1ccc(-c2ccc3[nH]c(=O)c4nnn(-c5ccc(N6CCN(C(=O)/C=C/C(=O)c7ccc(OC(F)(F)F)cc7)CC6)c(C(F)(F)F)c5)c4c3c2)cn1 | 84.5% | 1.75 µM | – |
| COc1cccc(C(=O)/C=C/C(=O)N2CCN(c3ccc(-n4nnc5c(=O)[nH]c6ccc(-c7ccc(OC)nc7)cc6c54)cc3C(F)(F)F)CC2)c1 | 68.4% | 1.05 µM | – |
| COc1ccc(-c2ccc3[nH]c(=O)c4nnn(-c5ccc(N6CCN(C(=O)/C=C/C(=O)c7ccccc7F)CC6)c(C(F)(F)F)c5)c4c3c2)cn1 | 62.8% | 3.65 µM | – |
| COc1ccc(/C=C/C(=O)N2CCN(c3ccc(-n4nnc5c(=O)[nH]c6ccc(-c7ccc(OC)nc7)cc6c54)cc3C(F)(F)F)CC2)cc1 | – | > 10 µM | – |
| COc1ccc(-c2ccc3[nH]c(=O)c4nnn(-c5ccc(N6CCN(C(=O)CCC(=O)c7ccc(F)cc7)CC6)c(C(F)(F)F)c5)c4c3c2)cn1 | – | > 10 µM | – |
| C=CC(=O)N1CCN(c2ccc(-n3nnc4c(=O)[nH]c5ccc(-c6ccc(OC)nc6)cc5c43)cc2C(F)(F)F)CC1 | 81.4% | 4.31 µM | – |
| COc1ccc(-c2ccc3[nH]c(=O)c4nnn(-c5ccc(N6CCN(C(=O)/C=C/C(=O)c7ccccc7OC)CC6)c(C(F)(F)F)c5)c4c3c2)cn1 | 74.1% | 0.79 µM | – |
| COc1ccc(-c2ccc3[nH]c(=O)c4nnn(-c5ccc(N6CCN(C(=O)/C=C/C(=O)c7ccc(OC)c(OC)c7)CC6)c(C(F)(F)F)c5)c4c3c2)cn1 | 65% | 1.95 µM | – |
| COc1ccc(-c2ccc3[nH]c(=O)c4nnn(-c5ccc(N6CCN(C(=O)/C=C/c7ccc(C(F)(F)F)cc7)CC6)c(C(F)(F)F)c5)c4c3c2)cn1 | – | > 10 µM | – |
| COc1ccc2cc([C@H](C)C(=O)Nc3cc(C)ccn3)ccc2c1 | – | – | Kd [3]: 0.52 µM |
| COc1ccc(-c2ccc3[nH]c(=O)c4nnn(-c5ccc(N6CCN(C(=O)C7=CCCC7)CC6)c(C(F)(F)F)c5)c4c3c2)cn1 | 82.2% | 2.14 µM | – |
| COc1ccc(-c2ccc3[nH]c(=O)c4nnn(-c5ccc(N6CCNCC6)c(C(F)(F)F)c5)c4c3c2)cn1 | – | – | IC50 (HL-60): 1.21 µM; IC50 (U-937): 1.84 µM; IC50 (A549): 2.55 µM; IC50 (K562): 2.03 µM; Activity (MOLT-4 [4]): 8.03%; Activity (MOLT-4 [5]): 29.84%; IC50 at 72 h [6]: 2.84 µM; Activity [7]: inactive; IC50 at 72 h [8]: 1.31 µM; Activity [9]: inactive; IC50 at 72 h [10]: 1.94 µM; IC50 (ASPC1): 2.43 µM; IC50 (OCI-Ly3): 0.52 µM; IC50 (MOLT-4 [11]): 1.26 µM; IC50 (HeLa): 1.23 µM |

Now from value to compound, other results behind:

| Emax [1] | DC50 [2] | SMILES | also measured |
| --- | --- | --- | --- |
| 68.1% | 3.8 µM | COc1ccc(-c2ccc3[nH]c(=O)c4nnn(-c5ccc(N6CCN(C(=O)/C=C/C(=O)c7ccc([N+](=O)[O-])cc7)CC6)c(C(F)(F)F)c5)c4c3c2)cn1 | – |
| 77.3% | 0.98 µM | COc1ccc(-c2ccc3[nH]c(=O)c4nnn(-c5ccc(N6CCN(C(=O)/C=C/C(=O)c7ccc(F)c(F)c7)CC6)c(C(F)(F)F)c5)c4c3c2)cn1 | – |
| 75.1% | 1.54 µM | COc1ccc(-c2ccc3[nH]c(=O)c4nnn(-c5ccc(N6CCN(C(=O)/C=C/C(=O)c7ccc(Cl)cc7)CC6)c(C(F)(F)F)c5)c4c3c2)cn1 | – |
| 84.6% | 1.03 µM | COc1ccc(-c2ccc3[nH]c(=O)c4nnn(-c5ccc(N6CCN(C(=O)/C=C/C(=O)c7ccc(C(F)(F)F)cc7)CC6)c(C(F)(F)F)c5)c4c3c2)cn1 | – |
| 82.2% | 1.1 µM | COc1ccc(-c2ccc3[nH]c(=O)c4nnn(-c5ccc(N6CCN(C(=O)/C=C/C(=O)c7ccccc7)CC6)c(C(F)(F)F)c5)c4c3c2)cn1 | – |
| 66.1% | 1.07 µM | COc1ccc(-c2ccc3[nH]c(=O)c4nnn(-c5ccc(N6CCN(C(=O)/C=C/C(=O)c7ccc(OC(C)C)cc7)CC6)c(C(F)(F)F)c5)c4c3c2)cn1 | – |
| 68.9% | 1.18 µM | COc1ccc(-c2ccc3[nH]c(=O)c4nnn(-c5ccc(N6CCN(C(=O)/C=C/C(=O)c7ccc(OC(F)F)cc7)CC6)c(C(F)(F)F)c5)c4c3c2)cn1 | – |
| 72.3% | 1.47 µM | COc1ccc(-c2ccc3[nH]c(=O)c4nnn(-c5ccc(N6CCN(C(=O)/C=C/C(=O)c7ccc(C)cc7)CC6)c(C(F)(F)F)c5)c4c3c2)cn1 | – |
| 60.1% | 0.69 µM | COc1ccc(C(=O)/C=C/C(=O)N2CCN(c3ccc(-n4nnc5c(=O)[nH]c6ccc(-c7ccc(OC)nc7)cc6c54)cc3C(F)(F)F)CC2)cc1 | – |
| 70.6% | 1.28 µM | CCOc1ccc(C(=O)/C=C/C(=O)N2CCN(c3ccc(-n4nnc5c(=O)[nH]c6ccc(-c7ccc(OC)nc7)cc6c54)cc3C(F)(F)F)CC2)cc1 | – |
| 70.1% | 2.18 µM | COc1ccc(-c2ccc3[nH]c(=O)c4nnn(-c5ccc(N6CCN(C(=O)/C=C/C(=O)c7ccc(Br)cc7)CC6)c(C(F)(F)F)c5)c4c3c2)cn1 | – |
